Entries after “also recorded” stand apart in the source; their conditions may differ.
How the values were obtained:
[1] = test system: isolated microsomes of MCF-7/ADR cells; assay: In vitro acidification of total microsomal preparation (acridine orange quenching)
Protocol: Acidification of Cellular Microsomes: The acidification of cellular microsomes was assayed spectrophotometrically. Two different approaches were used for assaying acidification: Acidification of the total microsomal preparation using quenching of acridine orange and acidification of the recycling endosomes by monitoring the fluorescence from a microsomal preparation from cells that had previously endocytosed FITC-transferrin.
The homogenate was centrifuged twice for 10 minutes at 3000 g to remove unbroken cells and nuclei. The supernatant was layered over 20 ml of 0.5 M sucrose (20 mM HERES (pH 7.4), 1 mM DTT, 1 mM EDTA, 1×protease inhibitor mix) and 1 ml of 2 M sucrose and centrifuged for one hour at 100,000 g (Beckman Ti60 Rotor). Microsomes are collected at the 0.5 M and 2 M interface.
Acidic vesicles accumulate acridine orange to high concentrations resulting in the self quenching of the dye. This accumulation causes depletion of the acridine orange from the extra-vesicular space, and a decrease of the overall fluorescence of the sample. […] The sample was allowed to equilibrate by stirring for 30 minutes at 25° C. After 5 minutes of recording to establish baseline, 1 mM Tris-ATP was added to begin acidification (100 mM stock, titrated to pH 7.4 with 1 M Tris-base before use).

MCF-7/ADR cells [2] = assay: Organelle-specific pH measurements with targeted SNARF and FITC probes in living cells; assay type: cell-based, human
Protocol: Organelle-specific pH measurements: The pH was measured in selective cellular compartments by targeting ratiometric pH probes to specific organelles. […] Using a Nikon epifluorescence microscope with a intensified CCD camera, the pH probe FITC was excited alternately at 450 nm and 490 nm and emission recorded with a 520/10 bandpass filter. […] In short, to calibrate the pH for the endosomal system, the chamber was perfused with 150 mM sodium buffers at pH of 5, 6 or 7 containing of monensin (20 μM) and nigericin (10 μM) for 5 minutes before recording the fluorescence. For the pH calibrations of cytosol and nucleoplasm, the cells were incubated in 140 mM potassium buffers at pH 6.0, 6.5, 7.0 and 7.5 containing nigericin (20 μM).
After endocytosis, the transferrin is transported through the endosomes and then recycled back to the surface without passage through the lysosomes.
pH in the lysosomes: The pH in the lysosomes was assayed both with light and electron microscopy. […] The pH was calibrated as described above. […] The cells were incubated one hour at room temperature, washed with several changes of PBS pH 7.4 containing 50 mM NH4Cl. […] The cells were embedded in LR White in gelatin capsules and baked at 60° C. for 24 hours in a vacuum oven, sectioned and incubated overnight at 4° C. with anti-DNP antibodies in 4% FBS, washed and incubated in gold (10 nm) labeled secondary antibodies for 2 hours. They were then stained and visualized under the electron microscope.
Cells were plated on polystyrene plates at 50% confluency. Twenty-four to thirty-six hours later, the medium was aspirated and the cells were covered with 50 μl of DME with SNARF-dextran (10 mg/ml). The cells were quickly scraped off the polystyrene and placed in pre-chilled tubes containing 1 ml DME without serum. The cells were harvested (100 g for 5 minutes), washed twice with pre-chilled DME, and plated on Lab-Tek chambers in DME with serum. The cells were allowed to recover for 24 hours prior to examination on a confocal microscope. The pH was calibrated from SNARF fluorescence as described above.
pH in the nucleus: The nucleoplasmic pH was probed by loading the cytosol with SNARF conjugated to a 10 kD dextran. This dextran is too large to cross cellular membranes, but can enter the nucleoplasm by diffusion across the nuclear pores. Confocal fluorescence microscopy was used to prepare optical sections through the cell allowing the fluorescence intensity of the nucleoplasm and cytoplasm to be quantified. The 10 kD SNARF-dextran was loaded into the cytosol and imaged using the same techniques for the 70 kD SNARF-dextrans (see above).

MCF-7/ADR cells [3] = assay: Acridine orange labeling of acidic compartments (confocal microscopy); assay type: cell-based, human; details: for red-orange acridine orange fluorescence of cytoplasmic organelles after addition of agent: MCF-7/ADR, 30 minutes, Monensin 5 μM, Bafilomycin A1 500 nM, concanomycin 100 nM, Tamoxifen 5 or 10 μM, verapamil 10 μM, cyclosporin A 10 μM
Protocol: Confocal fluorescence imaging of intracellular pH and acidic compartments: Acridine orange (2 μg/ml media; 4 mg/ml stock in water) was added directly to the chambers and the cells were incubated with the dye at 37° C. for 30 minutes. Cells in the presence of acridine orange were then examined at room temperature with an Insight Bilateral Laser Scanning Confocal Microscope (Meridian Instruments, Okemos, Mich.). […] Optical sections of the fluorescent sample were recorded at 0.5 micron intervals. […] The acetoxymethylester derivative of SNAFL-calcein (15 μg/ml) (Molecular Probes, Eugene, Oreg.) (a radiometric fluorescent probe for pH) was added to both MCF-7 and MCF-7adr cells. The ester linked fluorescent probe enters the cell passively where the esters are hydrolyzed by esterases located in the cytoplasm and intracellular vesicles. The SNAFL-calcein is then ionically trapped within the cytoplasm and vesicular compartments. […] These images were then compared to standard curves that were obtained in the following manner. […] Cells treated with monensin were exposed to the drug (10 μg/ml of media) for 30 minutes at 37° C. prior to labeling with SNAFL-calcein as described above. All cells were examined at room temperature.
The green and red emissions were collected using two photomultiplier tubes. […] Green emission was next passed through a 530 nm/30 nm bandpass filter and collected by the on-axis photomultiplier tube. Red emission was passed through a 610 nm longpass filter and collected by the 90° side photomultiplier tube.
Optical sections of the fluorescent samples were recorded at 0.5 micron intervals with a 60×oil immersion objective.

MCF-7/ADR cells [4] = assay: Subcellular distribution of Adriamycin fluorescence (confocal microscopy); assay type: cell-based, human; details: MCF-7/ADR, Monensin 5 μM, Bafilomycin A1 500 nM, concanomycin 100 nM, Tamoxifen 10 μM (50 μM in Example 3), verapamil 10 μM, cyclosporin 5 μM
Protocol: Adriamycin can be excited between 350 nm-550 nm and emits between 400 nm-700 nm.
Labeling of Cells with Adriamycin: Cells were loaded with Adriamycin (10 μM) added to the perfusion medium. […] For epi-fluorescence, the cells were excited with 450-490 nm filter and emission was monitored with a 510 nm longpass filter.

MCF-7/ADR cells [5] = assay: Cell viability assay of Adriamycin sensitivity (Hoechst 33258 DNA content); details: for effect on sensitivity of drug-resistant cells to Adriamycin: MCF-7/ADR (MCF-7adr) cells, agent co-incubated with adriamycin for 6 hours
Protocol: After 6 hours, the media was removed, the cells rinsed, and then fed with fresh media not containing drugs. […] Media was aspirated and the wells rinsed with Hanks Balanced Salt Solution (HBSS, phenol red free). The cells were sonicated in hypotonic media (0.1×HBSS) for 30 seconds. […] Calf thymus DNA was used for calibration.
Cell viability assays: The media was removed 60 hr. after plating the cells and replaced with fresh media supplemented with various concentrations of adriamycin (Calbiochem, CA) and monensin (solubilized in DMF 0.1%) (Sigma, St. Louis). After 6 hr the media was removed, the cells rinsed, and then fed with fresh media not containing drugs. […] Media was aspirated and the wells rinsed with Hanks Balanced Salt Solution (HBSS, phenol red free). The cells were sonicated in hypotonic media (0.1×HBSS) for 30 seconds. […] Calf thymus DNA was used for calibration.
Cell Viability Assays: Cell viability was assayed by plating cells at ˜1000 cells/well in 24 well plates (Falcon) in DME. […] The cells were fed daily for three days and then cell viability was quantified with two independent techniques: an assay of total DNA and an assay of volume of viable cells. […] Calf thymus DNA was used for calibration.
After three days cell viability was assayed.

## CC/C(=C(\c1ccccc1)c1ccc(OCCN(C)C)cc1)c1ccccc1 [Tamoxifen]
[1]; 8 μM Tamoxifen added 10 minutes after Tris-ATP
  time to almost complete dissipation of the pre-existing pH gradient: ≤ 5 minutes
MCF-7/ADR cells [2]; MCF-7/ADR
  change with Tamoxifen, pH Lysosomes SNARF-conjugated dextran: >+1.1
  change with Tamoxifen, pH Recycling endosomes FITC-conjugated transferrin: +0.5
  change with Tamoxifen, pH lysosomes FITC conjugated dextran: >+1.2
MCF-7/ADR cells [2]; MCF-7/ADR + Tamoxifen (10 μM)
  pH Cytosol (SNARF 70 kD dextran): 7.20 ± 0.1
  pH Lysosomes SNARF-conjugated dextran: 7.1
  pH Nucleus (SNARF 10 kD dextran): 7.20 ± 0.1
  pH Recycling endosomes FITC-conjugated transferrin: 6.7 ± 0.2
MCF-7/ADR cells [2]; MCF-7/ADR + Tamoxifen (10 μM), FITC cannot discriminate pH above 6.6
  pH lysosomes FITC conjugated dextran: > 6.6
MCF-7/ADR cells [2]; MCF-7/ADR + Tamoxifen (10 μM), listed as tamoxifen
  pH Recycling endosomes FITC-conjugated transferrin: 6.7
MCF-7/ADR cells [3]
  red-orange acridine orange fluorescence of cytoplasmic organelles after addition of agent: loss of the red-orange cytoplasmic fluorescence
MCF-7/ADR cells [3]; listed as tamoxifen
  red-orange acridine orange fluorescence of cytoplasmic organelles after addition of agent: steady decrease of the red acridine orange fluorescence
MCF-7/ADR cells [3]; MCF-7adr (Examples 2, 3), nigericin 7.5 μM, tamoxifen 50 μM
  acridine orange staining of acidic vesicles after treatment: loss of acridine orange staining within the pericentriolar region
MCF-7/ADR cells [4]
  Adriamycin distribution after addition of agent: the concentration of Adriamycin in the nucleus was substantially increased
MCF-7/ADR cells [4]; listed as tamoxifen
  Adriamycin distribution after addition of agent: shifts the adriamycin distribution to that observed in the MCF-7 cells; also recorded: shift of Adriamycin from punctate perinuclear compartments
MCF-7/ADR cells [5]; 1 μM Adriamycin in the presence of 5 μM Tamoxifen, 6 hours exposure, assayed after three days
  cell death: 95%
MCF-7/ADR cells [5]; 5 μM Tamoxifen alone
  cell viability in the absence of Adriamycin: no decrease in viability; also recorded: little effect on cell viability
MCF-7/ADR cells [5]
  effect on sensitivity of drug-resistant cells to Adriamycin: substantially increased the sensitivity of the cells to Adriamycin
MCF-7/ADR cells [5]; listed as tamoxifen
  effect on sensitivity of drug-resistant cells to Adriamycin: significantly enhanced sensitivity to adriamycin

## CC[C@@]1([C@@H]2O[C@@H]([C@H]3O[C@@](O)(CO)[C@H](C)C[C@@H]3C)C[C@@H]2C)CC[C@H]([C@]2(C)CC[C@]3(C[C@H](O)[C@@H](C)[C@@H]([C@@H](C)[C@@H](OC)[C@H](C)C(=O)O)O3)O2)O1 [Monensin]
[1]; Tamoxifen 8 μM, Bafilomycin A1 10 nM, monensin concentration not given
  acidification of pre-treated microsomes: inhibited acidification
[1]; added 10 minutes after ATP, Bafilomycin A1 100 nM, compared with tamoxifen
  rate of dissipation of the pre-existing pH gradient: significantly faster than tamoxifen
MCF-7/ADR cells [2]; MCF-7/ADR cells, SNARF 70 kD dextran, Tamoxifen at 10 μM
  shift of cytosolic pH, more alkaline: 0.2 units
MCF-7/ADR cells [3]
  red-orange acridine orange fluorescence of cytoplasmic organelles after addition of agent: loss of the red-orange fluorescence
MCF-7/ADR cells [3]; listed as monensin
  red-orange acridine orange fluorescence of cytoplasmic organelles after addition of agent: did not exhibit the red spectral shift within the vesicles
MCF-7/ADR cells [4]
  Adriamycin distribution after addition of agent: Adriamycin is found to accumulate within the nucleus
MCF-7/ADR cells [4]; listed as monensin
  Adriamycin distribution after addition of agent: redistributed Adriamycin to the nucleoplasm
MCF-7/ADR cells [5]
  effect on sensitivity of drug-resistant cells to Adriamycin: increased the drug sensitivity of the MCF-7adr cells to the level observed for drug-sensitive cells

Source: US20020042079A1, “METHODS AND AGENTS FOR MEASURING AND CONTROLLING MULTIDRUG RESISTANCE” (priority 1994, published 2002)
